Entries after “also recorded” stand apart in the source; their conditions may differ. Where two headings read alike, the source gives them in different places.
Key:
[1] = test system: cancer; assay: In vitro cancer targeting of IR783 derivatives; format: cell-based
[2] = test system: cancer; assay: In vivo cancer targeting of IR783 derivatives
[3] = test system: C4-2 human prostate cancer cells implanted intraosseously into the tibia; assay: Intratibial C4-2 prostate tumor model; format: in vivo, athymic nude mice; conditions: for tumors growing from tibia (incidence): i.p. from 30 days after implantation
Description: 1 million C4-2 human prostate cancer cells were implanted intraosseously into the tibia of the 4 to 6 week old athymic nude mice. […] The animals were observed daily and body weights were measured daily. Tumor diameters are measured with calipers, and tumor volume in mm^3 is calculated by the formula: Volume=(width)^2×length×0.5236.
In another tumor model, C4-2 cancer cells were administered intraosseously into the tibia of the 4 to 6 week old athymic nude mice.

[4] = test system: HEK293 human embryonic kidney cells; assay: MTT cytotoxicity assay, HEK293; format: cell-based; conditions: 48 hrs
Description: (§1) C4-2 (FIG. 13A) and P69 (FIG. 13B) cells were plated in 96 well plates (3,000/well). […] (FIG. 13C) SN12C and (FIG. 13D) HEK293 cells were plated in 96 well plates (3,000/well).

[5] = test system: P69 normal human prostate epithelial cells; assay: MTT cytotoxicity assay, P69; format: cell-based; conditions: Epithelial cell, 48 hours
Description: as §1

[6] = test system: SN12C human renal cancer cells; assay: MTT cytotoxicity assay, SN12C; format: cell-based; conditions: 48 hrs
Description: as §1

[7] = Body weight during treatment of C4-2 tumor-bearing mice; format: in vivo, athymic nude mice; conditions: i.p.
From the text: During treatment, the body weights were obtained daily.
(§2) C4-2 prostate cancer cells were subcutaneously implanted into the back of the 4 to 6 week old athymic nude mice. […] The serum prostate specific antigen (PSA) levels, which indicating the presence of prostate cancers, were monitored during the tumor reduction study.

[8] = test system: C4-2 human prostate cancer cells implanted subcutaneously; assay: Subcutaneous C4-2 prostate tumor model; format: in vivo, athymic nude mice; conditions: for incidence of tumor formation: SQ C4-2, i.p., IR783 and IR-MUT1 5 mg/kg daily, taxotere 15 mg/kg twice per week; for apoptosis in SQ C4-2 tumors (histopathology, H/E stain): SQ C4-2 tumors in mice
Description: 1 million C4-2 human prostate cancer cells were implanted subcutaneously into the back of the 4 to 6 week old athymic nude mice. […] Tumor diameters were measured with a caliper, and tumor volume in mm^3 is calculated by the formula: Volume=(width)^2×length/2.
Serum PSA levels were used to monitor tumor growth in a C4-2 SQ tumor model. Mice were checked for serum PSA levels before implantation and at 35 and 45 days after tumor cell implantation.
as §2

[9] = test system: C4-2 human prostate cancer cells; assay: MTT cytotoxicity assay, C4-2; format: cell-based; conditions: C4-2 cells, 48 hrs
Description: as §1

[10] = test system: cancer cells; assay: Toxicity to cancer cells at day 2 (FIG. 6); format: cell-based; conditions: evaluated at day 2; compared with free nonconjugated drug taxotere
From the text: IR-783 (dye molecule only) is nontoxic. […] This is expected since IR783 conjugated to docetaxel or paclitaxel, accumulation in cells require enzymatic activation, which releases the active taxotere or taxol component inside of the cells to exert cytotoxicity against the growth of cancer cells.

SMILES	In vitro targeting [1]	In vivo targeting [2]	also measured
CC1(C)C(/C=C/C2=C(Cl)C(=C/C=C3/N(CCO)c4ccccc4C3(C)C)/CCC2)=[N+](CCO)c2ccccc21	excellent	low intensity	–
CC1(C)C(/C=C/C2=C(Cl)C(=C/C=C3/N(CCCCC(=O)O)c4ccccc4C3(C)C)/CCC2)=[N+](CCCCC(=O)[O-])c2ccccc21	excellent	excellent	–
CC1(C)C(/C=C/C2=C(Cl)C(=C/C=C3/N(CCCCCC(=O)O)c4ccccc4C3(C)C)/CCC2)=[N+](CCCCCC(=O)O)c2ccccc21.[Na+].[Na+]	excellent	excellent	–
CN1/C(=C/C=C(Cl)/C=C/C2=[N+](C)c3ccc4ccccc4c3C2(C)C)C(C)(C)c2c1ccc1ccccc21	excellent	–	–
COc1ccc2c(c1)C(C)(C)C(/C=C/C=C/C=C1/N(C)c3ccc(OC)cc3C1(C)C)=[N+]2C.[I-]	excellent	–	–
CC1(C)C(/C=C/C2=C(Cl)C(=C/C=C3/N(CCCc4ccccc4)c4ccccc4C3(C)C)/CCC2)=[N+](CCCc2ccccc2)c2ccccc21	excellent	poor	–
CN1/C(=C/C=C(Cl)/C=C/C2=[N+](C)c3ccccc3C2(C)C)C(C)(C)c2ccccc21.[I-]	excellent	–	–
CC(=O)O[C@@]12CO[C@@H]1C[C@H](O)[C@@]1(C)C(=O)[C@H](O)C3=C(C)[C@@H](OC(=O)[C@H](O)[C@@H](NC(=O)OC(C)(C)C)c4ccccc4)C[C@@](O)([C@@H](OC(=O)c4ccccc4)[C@H]21)C3(C)C [taxotere, docetaxel, reference compound]	–	–	bone lesions on X-ray [3]: no lesion; tumors growing from tibia (incidence) [3]: 0/5; IC50 [4]: ~600 nM; IC50 [5]: ~10 nM; IC50 [6]: 12 nM; effect on body weight [7]: noticeably lower; serum PSA levels ([8]; 35 and 45 days after tumor cell implantation, compared with IR-783 (control) group): greatly depressed; also recorded: dramatically lower; also recorded: significantly lower; incidence of tumor formation [8]: no tumor growing; also recorded: no tumor formed; IC50 [9]: 10 nM
CCn1/c(=C/C=C/C2=[N+](CC)c3cccc4cccc2c34)c2cccc3cccc1c32	good	poor	–
CN1/C(=C/C=C2\CCCC(/C=C/C3=[N+](C)c4ccc5ccccc5c4C3(C)C)=C2Cl)C(C)(C)C2=c3ccccc3=CCC21.[I-] (stereo not shown)	–	poor	–
I.O=C1C(/C=c2\c3cccc4cccc(c43)n2CCCc2ccccc2)=C([O-])C/1=C/C1=[N+](CCCc2ccccc2)c2cccc3cccc1c23	–	poor	–
CC1(C)C(/C=C/C2=C(Cl)C(=C/C=C3/N(CCCCO)c4ccccc4C3(C)C)/CCC2)=[N+](CCCCO)c2ccccc21	poor	poor	–
O=C(O)CCCCCn1/c(=C/C=C2\CCCC(/C=C/C3=[N+](CCCCCC(=O)O)c4cccc5cccc3c45)=C2Cl)c2cccc3cccc1c32.[Na+].[Na+]	poor	poor	–
CC1(C)C(=CC=C2CCCC(C=CC3=[N+](CCCCS(=O)(=O)[O-])c4ccccc4C3(C)C)=C2Cl)N(CCCCS(=O)(=O)[O-])c2ccccc21.[Na+] [IR-783, reference compound]	–	–	bone lesions on X-ray [3]: both the osteolytic and osteoblastic lesions were apparently observed; average volume of tumor ([3]; IR-783 group versus IR-MUT1 group): significantly higher; tumors growing from tibia (incidence) [3]: 4/5; bone lesions on X-ray ([3]; listed as IR783): severe osteolytic lesions; effect on body weight [7]: no body weight loss; incidence of tumor formation [8]: 9/20; apoptosis in SQ C4-2 tumors (histopathology, H/E stain) [8]: negligible; apoptosis in SQ C4-2 tumors (histopathology, H/E stain) ([8]; listed as IR783): not affected; toxicity to cancer cells [10]: nontoxic

— patent US20230248832A1, “Small Molecule Ligand-Drug Conjugates for Targeted Cancer Therapy” (Emory University, priority 2008, published 2023)
